Laboratory results taken from paper PMC12346557, “Design, Synthesis, and Anticancer Evaluation of New Small-Molecule EGFR Inhibitors Targeting NSCLC and Breast Cancer” (International Journal of Molecular Sciences, 2025).
Read-outs that look alike come from different tables or passages of the source.

Tests used:
[1] = test system: Jurkat cells; assay: MTT cytotoxicity assay, Jurkat cells; type: cell-based, human; settings: for IC50: Homo sapiens, Jurkat, MTT; for SI (Selectivity Index): IC50 for PBMC/IC50 for Jurkat cell line
Description: A549 and MCF-7 human cancer cell lines were cultured in Dulbecco’s Modified Eagle’s Medium (DMEM) (Wako Pure Chemical Industries, Osaka, Japan) supplemented with 10% fetal bovine serum (FBS) (Equitech-Bio, Kerrville, TX, USA). […] All media were supplemented with 89 μg/mL of streptomycin (Meiji Seika Pharma, Tokyo, Japan). […] Cancer cells and PBMCs were seeded into 24-well and 96-well microtiter tissue culture plates (Iwaki, Asahi Glass Co., Chiba, Japan) at densities of 4 × 10^4 cells/mL and 5 × 10^5 cells/mL, respectively, and incubated for 72 h prior to drug treatment. The optimal seeding density for cytotoxicity assays was determined through preliminary testing. […] The cellular reduction MTT (Dojindo Molecular Technologies, Kumamoto, Japan) was assessed following established protocols from the literature, with slight modifications.

[2] = test system: A549 cells; assay: MTT cytotoxicity assay, A549 cells; type: cell-based, human; settings: triplicate; for IC50: Homo sapiens, A549, 72 h culture, 1-100 µM; for reduction of A549 cell viability: 100 µM, 72 h
[3] = test system: MCF-7 cells; assay: MTT cytotoxicity assay, MCF-7 cells; type: cell-based; settings: Homo sapiens, triplicate; for inhibition at 100 µM: MCF7, 100 µM, 72 h; for IC50: MCF7, 72 h culture, 1-100 µM
[4] = test system: MCF-7 cells; parameters: method as in ref 31 (1), 32 (2), 33 (3), 35 (6), 37 (8), 38 (9), 39 (10), 11 (11); settings: Figure 3; ref 31 (1), 32 (2), 33 (3), 35 (6), 37 (8), 38 (9), 39 (10), 11 (11); cited from earlier work
[5] = test system: EGFR; settings: cited from earlier work; for IC50: Figure 3, read-out: EGFR inhibition: IC50; for EGFR inhibition: Figure 3, concentration not given, ref 36 (7), 11 (11)
[6] = test system: A549 cells; parameters: method as in ref 33 (3), 34 (4, 5), 36 (7), 38 (9), 39 (10), 11 (11); settings: Figure 3; ref 33 (3), 34 (4, 5), 36 (7), 38 (9), 39 (10), 11 (11); cited from earlier work
[7] = test system: MCF-7 cells; assay: Annexin V/ethidium homodimer-III apoptosis staining, MCF-7 cells; type: cell-based, human; settings: IC50 concentration, 24 h, compared to control
Description: (§1) In this method, green staining indicates apoptotic cells, red indicates necrotic cells, and yellow represents cells in the late stages of apoptosis. This staining was analyzed using a fluorescence microscope. […] Furthermore, the apoptotic effect of B-2 on MCF-7 cells was assessed, showing that 4.3% of the cells underwent apoptosis after treatment, a result that was statistically significant (Figure 5b).
(§2) A549 and MCF-7 cells were treated with B-1 and B-2 at its IC50 concentration for 24 h. Following treatment, the cells were detached using 0.05% trypsin, washed twice with 1× binding buffer, and incubated in the dark at r.t. for 20 min with a staining solution containing 50 μL of 1× binding buffer, 4 μL of FITC-Annexin V solution, 4 μL of ethidium homodimer III solution, and 4 μL of Hoechst 33342 solution. After staining, the cells were washed again with 1× binding buffer, fixed in 2% paraformaldehyde, rinsed with PBS, and analyzed using the Biorevo Fluorescence BZ-9000 all-in-one fluorescence microscope (Keyence, Osaka, Japan).

[8] = test system: PBMCs; assay: MTT cytotoxicity assay, PBMCs (healthy); type: cell-based; settings: PBMC
Description: A549 and MCF-7 human cancer cell lines were cultured in Dulbecco’s Modified Eagle’s Medium (DMEM) (Wako Pure Chemical Industries, Osaka, Japan) supplemented with 10% fetal bovine serum (FBS) (Equitech-Bio, Kerrville, TX, USA). Jurkat cells, derived from human leukemia, were maintained in RPMI 1640 medium (Wako Pure Chemical Industries) with 10% FBS. PBMCs (Precision Bioservices, Frederick, MD, USA) were cultured in RPMI 1640 medium supplemented with 10% human AB serum (HS) (Gemini, Woodland, CA, USA). All media were supplemented with 89 μg/mL of streptomycin (Meiji Seika Pharma, Tokyo, Japan). Cells were incubated at 37 °C in a humidified atmosphere containing 95% air and 5% CO2. Cancer cells and PBMCs were seeded into 24-well and 96-well microtiter tissue culture plates (Iwaki, Asahi Glass Co., Chiba, Japan) at densities of 4 × 10^4 cells/mL and 5 × 10^5 cells/mL, respectively, and incubated for 72 h prior to drug treatment. The optimal seeding density for cytotoxicity assays was determined through preliminary testing. […] The cellular reduction MTT (Dojindo Molecular Technologies, Kumamoto, Japan) was assessed following established protocols from the literature, with slight modifications.

[9] = biological target: T1, recombinant human EGFR (amino acids 695 to C-terminus) (Homo sapiens, UniProt P00533); assay: EGFR Kinase Enzyme System / ADP-Glo kinase assay; type: biochemical
T1 construct: recombinant human EGFR (amino acids 695 to C-terminus); purchased Promega Corporation V3831
T1 sequence (P00533 695-1210 limits assumed): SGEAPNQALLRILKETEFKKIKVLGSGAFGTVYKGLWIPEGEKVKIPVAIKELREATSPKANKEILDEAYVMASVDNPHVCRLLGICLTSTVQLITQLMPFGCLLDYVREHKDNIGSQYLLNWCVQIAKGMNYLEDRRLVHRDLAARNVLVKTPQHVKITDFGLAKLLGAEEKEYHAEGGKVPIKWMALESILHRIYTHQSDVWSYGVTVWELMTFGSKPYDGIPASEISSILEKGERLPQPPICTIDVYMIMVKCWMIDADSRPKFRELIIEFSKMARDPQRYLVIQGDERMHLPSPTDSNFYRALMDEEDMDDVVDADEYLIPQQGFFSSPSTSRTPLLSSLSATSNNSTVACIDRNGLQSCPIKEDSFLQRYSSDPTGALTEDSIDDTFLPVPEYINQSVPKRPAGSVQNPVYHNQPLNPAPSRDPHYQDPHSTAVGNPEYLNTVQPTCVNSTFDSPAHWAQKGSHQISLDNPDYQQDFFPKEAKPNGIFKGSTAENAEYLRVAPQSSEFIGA
Description: Overexpression or mutation of the EGFR gene markedly enhances cell growth and proliferation, particularly in NSCLC [41] and breast cancer, making EGFR a well-established and effective therapeutic target for these diseases. Due to their potent activity against NSCLC and breast cancer, B-1 and B-2 were further examined for their potential to inhibit EGFR.
The kinase profiling assay (EGFR Kinase Enzyme System, V3831) was conducted according to the manufacturer’s protocol (Promega Corporation, Madison, WI, USA), with minor modifications. In brief, 95 μL of 2.5× kinase buffer and 15 μL of 100 μM ATP solution were used to prepare dilutions of recombinant human EGFR (amino acids 695 to C-terminus) and its substrate (4:1 Glu:Tyr mixture). Reactions were set up in a 384-well plate, each containing 2 μL of kinase working stock, 2 μL of ATP/substrate working stock, and 1 μL of test compound solution or 5% DMSO as a control. After a 2 h incubation at r.t., kinase activity was measured using the ADP-Glo Kinase Assay (Promega), following the manufacturer’s instructions. Specifically, 5 μL of ADP-Glo Reagent was added to each well and incubated for 40 min, followed by 10 μL of Kinase Detection Reagent and a further 30 min incubation at r.t. Luminescence was recorded using the Infinite M1000 microplate reader (Tecan, Grödig, Austria) with an integration time of 0.5 to 1 s to assess the compounds’ kinase inhibitory effects in a dose-dependent manner.

[10] = test system: A549 cells; assay: Annexin V/ethidium homodimer-III apoptosis staining, A549 cells; type: cell-based, human; settings: IC50 concentration, 24 h, compared to control
Description: as §1, §2

[11] = ref 31 (1), 33 (3), 35 (6), 37 (8), 38 (9), 39 (10)

Cc1ccc(C2=NN(c3nc(-c4ccccc4)cs3)C(c3cnc(-c4ccc(Cl)cc4)nc3)C2)cc1 (centres unmarked) [BP-1, 1-(4-Phenylthiazol-2-yl)-3-(4-methylphenyl)-5-(2-(4-chlorophenyl)pyrimidin-5-yl)-2-pyrazoline] gave an IC50 [1] greater than 100 µM, an IC50 [2] greater than 100 µM and an inhibition at 100 µM [3] of 27 to 53%. It also gave an IC50 [3] of 91.6 ± 10.2 µM.
With COc1ccc(C2=NN(c3nc(-c4ccc(F)cc4)cs3)C(c3cnc(-c4ccc(Cl)cc4)nc3)C2)cc1 (centres unmarked) [BP-10, 1-(4-(4-Fluorophenyl)thiazol-2-yl)-3-(4-methoxyphenyl)-5-(2-(4-chlorophenyl)pyrimidin-5-yl)-2-pyrazoline] the IC50 [1] was greater than 100 µM, the IC50 [2] was greater than 100 µM and the inhibition at 100 µM [3] was 27 to 53%. For the same compound, the IC50 [3] was 76 ± 9.91 µM.
For Cc1ccc(C2=NN(c3nc(-c4ccc(Cl)cc4)cs3)C(c3ccc(F)cc3)C2)cc1C (centres unmarked) [Compound 1], the IC50 [4] is given as 0.07 µM and the IC50 [5, 11] is given as 0.06 µM.
In the case of COc1ccc2nc(Cl)c(C3CC(c4ccc(C)cc4)=NN3c3nc(-c4ccc(F)cc4)cs3)cc2c1 (centres unmarked) [Compound 2], the IC50 [4] is given as 0.227 µM and the IC50 ([5]; ref 32 (2), 34 (4, 5)) is given as 0.0318 µM.
For N#Cc1ccc(-c2csc(N3N=C(c4ccc(N5CCOCC5)cc4)CC3c3ccc(Cl)cc3)n2)cc1 (centres unmarked) [Compound 3], the IC50 [6] is listed as 10.8 µM, the IC50 [4] is listed as 8.05 µM and the IC50 [5, 11] is listed as 4.34 µM.
In the case of CCOC(=O)c1sc(N2N=C(c3ccc(Cl)cc3Cl)CC2c2ccc(OC)cc2)nc1C (centres unmarked) [Compound 4], the IC50 [6] is given as 4.22 µM and the IC50 ([5]; ref 32 (2), 34 (4, 5)) is given as 0.0407 µM.
In the case of COc1ccc(C2CC(c3ccc(Cl)cc3Cl)=NN2c2nc(C)c(C(=O)Nc3ccccc3)s2)cc1OC (centres unmarked) [Compound 5], the IC50 [6] is given as 2.92 µM and the IC50 ([5]; ref 32 (2), 34 (4, 5)) is given as 0.0325 µM.
For COc1ccc(C2CC(c3ccc(OC)c(OC)c3)=NN2c2nc(-c3ccccc3)cs2)cc1 (centres unmarked) [Compound 6], the IC50 [4] is given as 7.21 µM and the IC50 [5, 11] is given as 0.009 µM.
For Clc1ccc(C2CC(c3ccc4ccccc4c3)=NN2c2nc(-c3ccc(Br)cc3)cs2)cc1 (centres unmarked) [Compound 7], the IC50 [6] is given as 9.51 µM and the EGFR inhibition [5] is given as 58%.
For CCc1nnc2c(Nc3ccc(C(=O)/C=C/c4ccc(OC)cc4)cc3)nc3ccccc3n12 [Compound 8], the IC50 [4] is given as 8.23 ± 0.25 µM and the IC50 [5, 11] is given as 0.083 ± 0.04 µM.
In the case of Cn1c(=O)c2[nH]c(SCC(=O)Nc3ccc(C(=O)/C=C/c4ccc(Cl)cc4)cc3)nc2n(C)c1=O [Compound 9], the IC50 [6] is given as 1.8 ± 0.7 µM and the IC50 [4] is given as 1.3 ± 0.9 µM.
In the case of C=CCn1c(SCC(=O)Nc2ccc(C(=O)/C=C/c3ccc(Cl)cc3)cc2)nnc1-c1cc(-c2ccccc2)nc2ccccc12 [Compound 10], the IC50 [6] is given as 3.6 ± 0.05 µM, the IC50 [4] is given as 3.3 ± 0.08 µM and the IC50 [5, 11] is given as 1.3 ± 1.2 µM.
In the case of COc1ccc(C(=O)/C=C/c2cnc(-c3ccc(Cl)cc3)nc2)cc1OC [Compound 11], the IC50 [6] is listed as 20.5 ± 2.7 µM, the IC50 [4] is listed as 6.7 ± 1.02 µM and the EGFR inhibition [5] is listed as 46%.
For Cc1ccc(C(=O)/C=C/c2cnc(-c3ccc(Cl)cc3)nc2)cc1 [Compound B-1, (E)-3-(2-(4-Chlorophenyl)pyrimidin-5-yl)-1-(4-methylphenyl)-2-propen-1-one], the IC50 [1] was 2.12 ± 0.48 µM, the “SI (Selectivity Index)” value [1] was 57.08 and the “apoptosis in MCF-7 cells” value [7] was 11.6%. The “reduction of A549 cell viability” value [2] was 38%, the IC50 [2] was greater than 100 µM and the IC50 [8] was 121 ± 14.8 µM. The EGFR inhibition ([9]; 1 μM) was “no inhibitory effect”, the EGFR inhibition ([9]; 10 μM) was “no inhibitory effect” and the inhibition at 100 µM [3] was 73%. For the same compound, the IC50 [3] was 6.1 ± 1.26 µM.
In the case of COc1ccc(C(=O)/C=C/c2cnc(-c3ccc(Cl)cc3)nc2)cc1 [Compound B-2, (E)-3-(2-(4-Chlorophenyl)pyrimidin-5-yl)-1-(4-methoxyphenyl)-2-propen-1-one], the “apoptosis in A549 cells” value [10] is reported as 16.8%, the IC50 [1] is reported as 2.96 ± 0.44 µM and the “SI (Selectivity Index)” value [1] is reported as 23.20. For the same compound, the “apoptosis in MCF-7 cells” value [7] was 4.3%, the “reduction of A549 cell viability” value [2] was 73% and the IC50 [2] was 2.14 ± 0.83 µM. It also gave an IC50 [8] of 68.7 ± 9.82 µM, an inhibition at 1 µM ([9]; 1 μM) of 26% and an inhibition at 10 µM ([9]; 10 μM) of 66%. The inhibition at 100 µM [3] was 52% and the IC50 [3] was 8.91 ± 1.38 µM.
With Cc1ccc(C2=NN(C(N)=S)C(c3cnc(-c4ccc(Cl)cc4)nc3)C2)cc1 (centres unmarked) [Compound B-6, 3-(4-Methylphenyl)-5-(2-(4-chlorophenyl)pyrimidin-5-yl)-1-thiocarbamoyl-2-pyrazoline] the IC50 [1] was 15.1 ± 2.85 µM, the “SI (Selectivity Index)” value [1] was 7.49 and the “reduction of A549 cell viability” value [2] was 44%. The IC50 [2] was greater than 100 µM, the IC50 [8] was 113 ± 15.1 µM and the inhibition at 100 µM [3] was 79%. For the same compound, the IC50 [3] was 6.52 ± 0.97 µM.
In the case of CS(=O)(=O)CCNCc1ccc(-c2ccc3ncnc(Nc4ccc(OCc5cccc(F)c5)c(Cl)c4)c3c2)o1 [Lapatinib, lapatinib, reference compound], the IC50 [8] is reported as 11 ± 2.47 µM.
